# Target: T1, glucocorticoid receptor (Homo sapiens, UniProt P04150)
# T1 construct: expressed in transfected cells
# T1 sequence (P04150 524-758 limits assumed): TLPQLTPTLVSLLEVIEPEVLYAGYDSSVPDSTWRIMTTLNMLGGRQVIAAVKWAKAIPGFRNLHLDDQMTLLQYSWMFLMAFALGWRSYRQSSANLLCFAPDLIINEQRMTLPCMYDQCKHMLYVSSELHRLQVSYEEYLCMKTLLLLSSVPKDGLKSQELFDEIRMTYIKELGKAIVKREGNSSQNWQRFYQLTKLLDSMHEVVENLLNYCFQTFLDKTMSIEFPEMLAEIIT
# Experiment: Agonistic mode of action on the glucocorticoid receptor (CHO-Gal4/GR luciferase reporter cell line)
# Assay type: cell-based
# Conditions: range class observed in the agonistic assay or the antagonistic assay (CHO-Gal4/GR reporter cells); table does not say which mode applies per example
# In short: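 CHO cells stably carrying GAL4 DBD–GR ligand-binding-domain fusion and GAL4-UAS firefly luciferase reporter, 5000 cells/well grown 24 h, then compounds added in Opti-MEM at 8 half-log concentrations from 10 μM to 0.003 μM (0.5% DMSO), quadruplicates. Agonist-induced luminescence read on FLIPR Tetra; EC50 calculated.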
row,IC50 or EC50 (agonist or antagonist mode not specified),Compound
1,0.1 to 1 µM,"COc1c(-c2cc(C)cc3c2ccn3S(C)(=O)=O)c(F)cc2c1-n1c(C)nnc1C(C)(C)N2 [Example 477, 7-Fluoro-9-methoxy-1,4,4-trimethyl-8-(6-methyl-1-methylsulfonyl-1H-indol-4-yl)-5H-[1,2,4]triazolo[4,3-a]quinoxaline]"
2,< 0.1 µM,"COc1c(-c2cc(F)cc3[nH]ccc23)c(F)cc2c1-n1c(C)nnc1C(C)(C)N2 [Example 468, 7-Fluoro-8-(6-fluoro-1H-indol-4-yl)-9-methoxy-1,4,4-trimethyl-5H-[1,2,4]triazolo[4,3-a]quinoxaline]"
3,1 to 15 µM,"COCCn1ccc2c(-c3c(C(F)F)cc4c(c3F)-n3c(C)nnc3C(C)(C)N4)cccc21 [Example 295, 7-(Difluoro-methyl)-9-fluoro-8-[1-(2-methoxy-ethyl)-1H-indol-4-yl]-1,4,4-trimethyl-5H-[1,2,4]triazolo[4,3-a]quinoxaline]"
4,< 0.1 µM,"Cc1nnc2n1-c1c(cc(F)c(-c3cc(F)cc4c3ccn4S(C)(=O)=O)c1C(F)F)NC2(C)C [Example 390, 9-(Difluoro-methyl)-7-fluoro-8-(6-fluoro-1-methylsulfonyl-1H-indol-4-yl)-1,4,4-trimethyl-5H-[1,2,4]triazolo[4,3-a]quinoxaline]"
5,1 to 15 µM,"COc1cc2c(c(F)c1-c1cccc3c1ccn3S(C)(=O)=O)-n1c(C)nnc1C(C)(C)N2 [Example 263, 9-Fluoro-7-methoxy-1,4,4-trimethyl-8-(1-methylsulfonyl-1H-indol-4-yl)-5H-[1,2,4]triazolo[4,3-a]quinoxaline]"
6,0.1 to 1 µM,"Cc1nnc2n1-c1c(cc(F)c(-c3ccc(Cl)c4[nH]ccc34)c1F)NC2(C)C [Example 529, 8-(7-Chloro-1H-indol-4-yl)-7,9-difluoro-1,4,4-trimethyl-5H-[1,2,4]triazolo[4,3-a]quinoxaline]"
7,1 to 15 µM,"COCCn1ccc2c(-c3c(C)cc4c(c3F)-n3c(C)nnc3C(C)(C)N4)cccc21 [Example 337, 9-Fluoro-8-[1-(2-methoxy-ethyl)-1H-indol-4-yl]-1,4,4,7-tetramethyl-5H-[1,2,4]triazolo[4,3-a]quinoxaline]"
8,< 0.1 µM,"Cc1c(-c2cc(F)cc3c2ccn3C)c(F)cc2c1-n1c(C)nnc1C(C)(C)N2 [Example 518, 7-Fluoro-8-(6-fluoro-1-methyl-1H-indol-4-yl)-1,4,4,9-tetramethyl-5H-[1,2,4]triazolo[4,3-a]quinoxaline]"
9,< 0.1 µM,"Cc1nnc2n1-c1c(cc(F)c(-c3cc(F)cc4c3ccn4C3CC3)c1C(F)(F)F)NC2(C)C [Example 88, 8-(1-Cyclopropyl-6-fluoro-1H-indol-4-yl)-7-fluoro-1,4,4-trimethyl-9-(trifluoromethyl)-5H-[1,2,4]triazolo[4,3-a]quinoxaline]"
10,0.1 to 1 µM,"COc1cc(-c2c(F)cc3c(c2C(F)(F)F)-n2c(C)nnc2C(C)(C)N3)c2ccn(S(C)(=O)=O)c2c1 [Example 536, 7-Fluoro-8-(6-methoxy-1-methylsulfonyl-1H-indol-4-yl)-1,4,4-trimethyl-9-(trifluoro-methyl)-5H-[1,2,4]triazolo [4,3-a]quinoxaline]"
11,0.1 to 1 µM,"Cc1nnc2n1-c1c(ccc(-c3cc(F)cc4c3ccn4S(C)(=O)=O)c1C(F)F)NC2(C)C [Example 526, 9-(Difluoro-methyl)-8-(6-fluoro-1-methylsulfonyl-1H-indol-4-yl)-1,4,4-trimethyl-5H-[1,2,4] triazolo[4,3-a]quinoxaline]"
12,0.1 to 1 µM,"CCc1nnc2n1-c1c(cc(F)c(-c3cc(F)cc4c3ccn4CCOC)c1C)NC2(C)C [Example 36, 1-ethyl-7-fluoro-8-(6-fluoro-1-(2-methoxyethyl)-1H-indol-4-yl)-4,4,9-trimethyl-4,5-dihydro-[1,2,4]triazolo[4,3-a]quinoxaline]"
13,0.1 to 1 µM,"Cc1c[nH]c2c(-c3ccc4c(c3C(F)(F)F)-n3c(C)nnc3C(C)(C)N4)cccc12 [Example 503, 1,4,4-Trimethyl-8-(3-methyl-1H-indol-7-yl)-9-(trifluoromethyl)-5H-[1,2,4]triazolo[4,3-a]quinoxaline]"
14,0.1 to 1 µM,"Cc1nnc2n1-c1c(cc(Cl)c(-c3cc(F)cc4c3cnn4CC(F)F)c1F)NC2(C)C [Example 508, 7-Chloro-8-[1-(2,2-difluoro-ethyl)-6-fluoro-1H-indazol-4-yl]-9-fluoro-1,4,4-trimethyl-5H-[1,2,4] triazolo[4,3-a]quinoxaline]"
15,1 to 15 µM,"Cc1nnc2n1-c1c(cc(F)c(-c3cccc4c3ccn4CCN(C)C)c1F)NC2(C)C [Example 383, [2-[4-(7,9-Difluoro-1,4,4-trimethyl-5H-[1,2,4]triazolo[4,3-a]quinoxalin-8-yl)-1H-indol-1-yl]-ethyl]-dimethyl-amine]"
16,0.1 to 1 µM,"Cc1c(-c2cc(F)cc3c2cnn3S(C)(=O)=O)c(Cl)cc2c1-n1c(C)nnc1C(C)(C)N2 [Example 347, 7-Chloro-8-(6-fluoro-1-methylsulfonyl-1H-indazol-4-yl)-1,4,4,9-tetramethyl-5H-[1,2,4]triazolo[4,3-a]quinoxaline]"
17,0.1 to 1 µM,"Cc1nnc2n1-c1c(cc(F)c(-c3cc(F)cc4cc[nH]c34)c1C(F)F)NC2(C)C [Example 515, 9-(Difluoro-methyl)-7-fluoro-8-(5-fluoro-1H-indol-7-yl)-1,4,4-trimethyl-5H-[1,2,4]triazolo[4,3-a] quinoxaline]"
18,0.1 to 1 µM,"Cc1c[nH]c2c(-c3c(F)cc4c(c3F)-n3c(Cc5ccccc5)nnc3C(C)(C)N4)cccc12 [Example 68, 1-Benzyl-7,9-difluoro-4,4-dimethyl-8-(3-methyl-1H-indol-7-yl)-5H-[1,2,4]triazolo[4,3-a]quinoxaline]"
19,< 0.1 µM,"Cc1nnc2n1-c1c(cc(F)c(-c3cc(F)cc4c3cnn4CCO)c1C(F)(F)F)NC2(C)C [Example 449, 2-[6-Fluoro-4-[7-fluoro-1,4,4-trimethyl-9-(trifluoromethyl)-5H-[1,2,4]triazolo[4,3-a]quinoxalin-8-yl]-1H-indazol-1-yl]-ethanol]"
20,< 0.1 µM,"CC#Cc1c[nH]c2c(-c3c(F)cc4c(c3C)-n3c(C)nnc3C(C)(C)N4)cccc12 [Example 28, 7-fluoro-1,4,4,9-tetramethyl-8-(3-(prop-1-yn-1-yl)-1H-indol-7-yl)-4,5-dihydro-[1,2,4]triazolo[4,3-a]quinoxaline]"
21,0.1 to 1 µM,"CCS(=O)(=O)n1ccc2c(-c3c(F)cc4c(c3F)-n3c(C)nnc3C(C)(C)N4)cc(F)cc21 [Example 18, 8-(1-(ethylsulfonyl)-6-fluoro-1H-indol-4-yl)-7,9-difluoro-1,4,4-trimethyl-4,5-dihydro-[1,2,4]triazolo[4,3-a]quinoxaline]"
22,< 0.1 µM,Cc1c[nH]c2c(-c3c(F)cc4c(c3Cl)-n3c(C)nnc3C(C)(C)N4)cc(F)cc12 [Example 30]
23,0.1 to 1 µM,"Cc1nnc2n1-c1c(cc(F)c(-c3ccc(C#N)c4[nH]ccc34)c1C(F)(F)F)NC2(C)C [Example 531, 4-[7-Fluoro-1,4,4-trimethyl-9-(trifluoromethyl)-5H-[1,2,4]triazolo[4,3-a]quinoxalin-8-yl]-1H-indole-7-carbonitrile]"
